Data: US20100068297A1, “Antimicrobial Composition” (NATURE THERAPEUTICS LIMITED, priority 2006, published 2010)
Values joined by “and” are separate entries in the source; they are usually repeats but may differ in a detail not shown here. Identical values can stand only once.

How the values were obtained:
Pseudomonas aeruginosa = assay: In vitro bactericidal assay, control strain; type: cell-based; conditions: metal ion added to PRE
Protocol: The control strain was Pseudomonas aeruginosa for standard experimentation, ie determining optimal preparations.
Growth conditions: on nutrient agar provided by Oxoid Ltd for 24 hrs at 37° C.
The inventor established a functional in vitro bactericidal assay to screen a variety of formulations (cream, aqueous and ointment). This assay involved adding 0.5 g of ointment to 10 ml of water and vortexing prior to a standard suspension test using 50 microlitres of bacterial cell suspension to a turbidity of 0.5 McFarland solution (bacterial cell suspension equal to 1.5×10^8) plus 100 microlitres of the ointment solution. After incubation in the dark at room temperature for 30 mins, serial dilutions (from 10^−1 to 10^−5) were carried out on nutrient agar.
In terms of mechanisms of action, the preference for using metal ions in the reduced state led to the incorporation of studies using reductants to stabilize this oxidation state, and prolong and enhance activity. Thus, the reductant Vitamin C was added in three different doses after pre-incubating the PRE/metal ions mixtures for 30 minutes, and the results are shown in FIG. 2.
The longer term activities of the PRE:metal salt(s) mixtures were investigated after a period of 24 and 48 hours, and the results are shown in FIG. 4. […] The results shown are for one system only as an example.

Prot. mirabilis = assay: Tea extracts with metal salts, suspension assay 30 min; type: cell-based, Proteus mirabilis; conditions: Lambda buffer control
Protocol: (§1) Tea infusions were prepared as previously with boiling sterilized distilled water. After 10 minutes, the extracts are removed from the beaker into sterilized universal tubes. The pH of these extracts was neutralized using a 1 M NaOH solution. The extracts are refrigerated, used within 4 days and without further treatment. Overnight cultures of the Gram-positive strain (Staph. aureus) and the Gram-negative strains (Ps. aeruginosa and Prot. mirabilis) were suspended in Ringers solution to a turbidity equivalent to 0.5 McFarland (1.5×10^8 CFU/ml). Metal salts were added to the optimum tea extracts immediately before the assay was conducted. […] The appropriate bacterial dilution was prepared and 50 μl of that was placed in a sterile Eppendorf micro-centrifuge tube with a 100 μl of the extract/metal salt solution. […] Serial dilutions were prepared in Ringer's solution, 10 μL aliquots of each dilution were spotted onto nutrient agar plates and incubated aerobically for 24 hours at 37° C. Each assay was conducted in triplicate.

Staph. aureus = assay: as above; type: cell-based, Staphylococcus aureus; conditions: Lambda buffer control
Protocol: as §1

Ps. aeruginosa = assay: as above; type: cell-based, Pseudomonas aeruginosa; conditions: Lambda buffer control
Protocol: as §1

E. coli = assay: Suspension assay, 30 minutes exposure, viable count; type: cell-based; conditions: no Vitamin C
Protocol: All reagents were purchased from Sigma-Aldrich (Poole, Dorset) and distilled water was used throughout. Overnight cultures on nutrient agar were then suspended in Ringer's solution (Oxoid, U.K.) to a turbidity equivalent to 0.5 McFarland (1.5×10^8 CFU/ml). […] The final solution was protected from light (Stewart et al. 1998. J. Appl Microbiol 84:777-783). The appropriate bacterial dilution was prepared and 50 μl placed in a sterile Eppendorf micro-centrifuge tube with a 100 μl of the extract/metal salt solution. […] Serial dilutions were prepared in Ringer's solution (10^−5), 10 μl of each dilution is spotted on nutrient agar plate and incubated for 24 hours at 37° C. Each assay was conducted in triplicate. The assay was carried out as described above with the following addition: […]

[1] = tested on: ESβL Pseudomonas aeruginosa clinical isolates; assay: Suspension test, aqueous preparations, 30 minutes; type: cell-based; conditions: no Vitamin C, nine isolates, listed as Cu(II)
Protocol: P. aeruginosa isolates were removed from the freezer and first passaged on nutrient agar twice before use. Overnight cultures on nutrient agar were then suspended in Ringer's solution (Oxoid, U.K.) to a turbidity equivalent to 0.5 McFarland (1.5×10^8 CFU/ml).
The appropriate bacterial dilution was prepared and 50 μl placed in a sterile Eppendorf micro-centrifuge tube with a 100 μl of the extract/metal salt solution. After exposure of the bacteria for 30 minutes at room temperature, the activity of the bactericidal agent was neutralized by adding an equal volume of 2% (v/v) Tween-80 (Sigma Chemical Co., UK) in Lambda buffer (Stewart et al. 1998). Serial dilutions were prepared in Ringer's solution (10^−5), 10 μl of each dilution is spotted on nutrient agar plate and incubated for 24 hours at 37° C. Each assay was conducted in triplicate.
The assay was carried out as described above with the following addition: Vitamin C was added to the metal ion solution immediately prior to mixing with the PRE. Aliquots of Vitamin C were made to give final metal ion:Vitamin C ratios (and Vitamin C concentrations) of 1:1 (4.8 mM), 1:5 (24 nM), 1:20 (96 mM) (metal salt:Vitamin C). 700 μl of this solution was then added to PRE.

PVL positive cMRSA = assay: Suspension test, 2 hours, clinical isolates; type: cell-based, Staphylococcus aureus; conditions: 2 hours exposure, 10 clinical isolates
Protocol: Clinical isolates of methicillin resistant (n=10), methicillin sensitive (n=10) Staphylococcus aureus (MRSA and MSSA) and Panton-Valentine Leukocidin producing cMRSA (n=10) were used in the study. The MRSA and MSSA isolates were collected from the Royal Marsden Hospital (London, UK) and the cMRSA isolates were collected from the Devon and Exeter Hospital (UK). The isolates were cultured over night on nutrient agar (Oxoid), aerobically at 37° C. and then frozen in cyrovials (Pro-labs) at −80° C. until required. Prior to use all isolates were passaged twice on nutrient agar aerobically at 37° C. In all assays culture were prepared by using overnight cultures on nutrient agar that were then suspended in Ringer's solution (Pro-Lab, U.K.) to a turbidity equivalent to 0.5 McFarland (1.5×10^8 cfu ml^−1).
Briefly, overnight cultures on nutrient agar were then suspended in Ringer's solution (Oxoid, U.K.) to a turbidity equivalent to 0.5 McFarland (1.5×10^8 CFU/ml).
The appropriate bacterial dilution was prepared and 50 μL it placed in a sterile Eppendorf micro-centrifuge tube with a 100 μL of the extract/metal salt solution. Following treatment of the bacteria for 2 hours at room temperature, the activity of the bactericidal agent was neutralized by adding an equal volume of 2% (v/v) Tween-80 (Sigma Chemical Co., UK) in Lambda buffer. […]

MRSA = assay: Micro-dilution MIC, alone and in combination; type: cell-based, Staphylococcus aureus; conditions: each table line is a group of isolates; 24 h
Protocol: The plates were prepared as follows, 50 μl of four-times strength Iso-Sensitest broth was added to the first row of wells and 50 μl of double strength Iso-Sensitest broth was added to all remaining wells. To the first row of wells 50 μl of the PRE was added and mixed, 50 μl of broth from row A was transferred to row B and mixed, this process was continued to row E Finally, 50 μl of broth was removed from well F and discarded. Then the overnight cultures were suspended in Ringers solution to a turbidly of 0.5 McFarland (1.5×10^8 cfu/ml). 50 μl of suspension were added to well A (final concentration of PRE in well A=200 mg/ml) through to G All samples were carried out in Triplicate. All plates were incubated at 37° C. for 24 hours. After incubation 10 μl of broth from each well was spotted onto nutrient agar and incubated at 37° C. for 24 hours. After incubation the plates were examined to determine breakpoints by the presence or absence of growth.

Row | SMILES | activity of the metal ion solution upon addition to PRE (Pseudomonas aeruginosa) | bactericidal efficacy, reduction in CFU/mL (factor) (Prot. mirabilis) | bactericidal efficacy, reduction in CFU/mL (factor) (Staph. aureus) | bactericidal efficacy, reduction in CFU/mL (factor) (Ps. aeruginosa) | reduction of surviving population / growth, factor compared to the buffer (E. coli) | reduction in growth (mean values) [1] | isolates in which the 10^3 log reduction in growth was observed (PVL positive cMRSA) | reduction in growth (PVL positive cMRSA) | MIC, agent alone (MRSA)
1 | O=S(=O)([O-])[O-].[Mn+2] [MnSO4] | little or no activity | minimal | poor efficacy | minimal |  |  |  |  | 
2 | O=S(=O)([O-])[O-].[Fe+2] [FeSO4, iron (II) sulfate] | highest activities | 10^3 | poor efficacy | 10^3 |  |  |  |  | 
3 | O=S(=O)([O-])[O-].[Zn+2] [ZnSO4] | little or no activity |  |  |  |  |  |  |  | 
4 | O=S(=O)([O-])[O-].[Cu+2] [CuSO4, copper (II) sulfate] | highest activities | 10^2 | 10^4 | 10^2 | 10^4 | ~10^1 log10 and ~10^2 log10 | 60% | 10^3 log10 | 3125 µg/mL and 1563 µg/mL
